The source of these data is ChEMBL document CHEMBL6083295, “Natural Products Driven Medicinal Chemistry” (J Med Chem, 2024).

Values after ≈ are worked out from the molar mass of the structure shown.

Assay [1] has as its system Staphylococcus aureus. The experiment in a line: Potentiation of gentamicin-induced antibiofilm activity against Staphylococcus aureus assessed as disruption of preformed biofilm by measuring fold increase in gentamicin activity. Type of assay: functional.
Assay [2] relates to Staphylococcus aureus. Nature of the assay: Potentiation of vancomycin-induced antibiofilm activity against Staphylococcus aureus assessed as disruption of preformed biofilm by measuring fold increase in vancomycin activity. Format: functional.
The subject of assay [3] is MDA-MB-231. The experiment in a line: Antitumor activity against human MDA-MB-231 cells xenografted in triple-negative breast cancer xenograft model assessed as tumor growth inhibition at 15 mg/kg relative to control. Format: functional. The conditions noted are these: read-out: TGI.
For assay [4], the system named is MDA-MB-231. Nature of the assay: Antitumor activity against human MDA-MB-231 cells xenografted in triple-negative breast cancer xenograft model assessed as tumor growth inhibition at 30 mg/kg relative to control. Format: functional. To be noted: read-out: TGI.
Another assay has as its system Staphylococcus sp. Nature of the assay: Antibacterial activity against Staphylococcus species. Type of assay: functional.
The subject of a further assay is Acinetobacter. Nature of the assay: Antibacterial activity against Acinetobacter. Type of assay: functional.
The subject of the next assay is B16. The experiment in a line: Cytotoxicity against mouse B16 cells. Format: functional, cell-based.
The subject of a further assay is HCT-116. Nature of the assay: Antiproliferative activity against human HCT-116 cells.

One may read the MIC as the lowest concentration found to suppress growth. Low values mean a more susceptible organism, high ones a less susceptible organism. Broadly, the IC50 is the point on the concentration scale where inhibition reaches its midpoint. Low readings indicate inhibition by little substance, high ones a need for much substance.

With `CC(=O)[C@H](C)C[C@@H](C)C[C@H](C)C(=O)C1=C(O)/C(=C/c2ccccc2)NC1=O`, the “fold change (FC)” value with Staphylococcus aureus [1] came to 115; in the assay on Staphylococcus aureus [2] it was 31.

Consider `CC(C)C[C@@H](CO)N1CCc2c(oc3c2C(=O)C(=O)c2ccccc2-3)C1`, for which the inhibition in vivo at 15 mg/kg in the assay with MDA-MB-231 [3] was 42.2%. The inhibition in vivo at 30 mg/kg in the assay with MDA-MB-231 [4] was determined as 60.4%.

In the case of `C#CC[C@H](NC(=O)c1ccc(NC(=O)c2ccc(C#N)cc2)cc1)C(=O)Nc1ccc(C(=O)Nc2ccc(C(=O)Nc3ccc(C(=O)O)cc3)c(O)c2OC(C)C)cc1`, the MIC with Staphylococcus sp. and with Acinetobacter was 0.06 µg/mL (≈ 0.0757 µM) throughout.

Compound `COC[C@@H](OC)C(=O)O[C@H](CC[C@H](C)[C@H](C[C@@H]1OC(=O)C[C@@H](O)C/C=C/C(=O)[C@H](C)[C@H](OC)c2coc(n2)-c2coc(n2)-c2coc(n2)/C=C\C[C@H](OC)[C@H]1C)OC)[C@H](C)[C@H](OC(C)=O)[C@H](C)/C=C/N(C)C=O` yielded an IC50 in the assay on B16 of 0.5 nM.

As to `COc1ccc2cc(NC(=O)C3=NO[C@H]4[C@H](O)C=C[C@@H](Cl)[C@@]4(O)C3)c(=O)oc2c1OC` [TRICHODERMAMIDE B], the IC50 in the assay with HCT-116 came to 120 nM.
